Laboratory results taken from ChEMBL document CHEMBL1201862, “PubChem BioAssay data set” (2004).
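Protocol summary: plate cells (96-well), add compound at 5 concentrations, incubate 48 h, interpolate endpoints linearly. Abbreviation: GI50, concentration required for 50% inhibition of growth.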 The source made the active and inactive calls. No stated cut-off is given here; in the data, active = GI50 up to about 1.1 µM and inactive = higher.

Assays:
Experiment in all cases: NCI tumour cell line growth inhibition, 48 h
[1] = test system: UACC-257
[2] = test system: SF-268
[3] = test system: XF498
[4] = test system: SF-539
[5] = test system: NCI-H522
[6] = test system: EKVX
[7] = test system: SR
[8] = test system: HT-29
[9] = test system: HCC 2998
[10] = test system: TK-10
[11] = test system: LXFL 529
[12] = test system: OVCAR-5
[13] = test system: HOP-92
[14] = test system: MOLT-4
[15] = test system: RXF 393
[16] = test system: OVCAR-3
[17] = test system: SK-MEL-5
[18] = test system: DLD-1
[19] = test system: DMS-114
[20] = test system: CAKI-1
[21] = test system: 786-0
[22] = test system: SNB-19
[23] = test system: KM-20L2
[24] = test system: HCT-116
[25] = test system: UO-31
[26] = test system: HCT-15
[27] = test system: NCI-H226
[28] = test system: ACHN
[29] = test system: HOP-18
[30] = test system: RPMI-8226
[31] = test system: UACC-62
[32] = test system: HOP-62
[33] = test system: Malme-3M
[34] = test system: LOX IMVI
[35] = test system: SK-MEL-2
[36] = test system: SF-295
[37] = test system: M19-MEL
[38] = test system: HL-60
[39] = test system: OVCAR-4
[40] = test system: A498
[41] = test system: A549
[42] = test system: K562
[43] = test system: SK-MEL-28
[44] = test system: NCI-H460
[45] = test system: SK-OV-3
[46] = test system: NCI-H23
[47] = test system: U-251
[48] = test system: CCRF-CEM
[49] = test system: SNB-78
[50] = test system: IGROV-1
[51] = test system: SN12C
[52] = test system: OVCAR-8
[53] = test system: COLO 205
[54] = test system: SW-620
[55] = test system: KM12
[56] = test system: M14
[57] = test system: SNB-75
[58] = test system: DMS-273

## CC(C)/C=C1\CCC(CN2CCCC2)C1=O (configuration not stated)
[1]
  GI50: 17.7 µM (inactive)
[2]
  GI50: 22.3 µM (inactive)
[3]
  GI50: 16.6 µM (inactive)
[4]
  GI50: 18.7 µM (inactive)
[5]
  GI50: 1.95 µM (inactive)
[6]
  GI50: 20.8 µM (inactive)
[7]
  GI50: 2.82 µM (inactive)
[8]
  GI50: 9.73 µM (inactive)
[9]
  GI50: 19.5 µM (inactive)
[10]
  GI50: 10.7 µM (inactive)
[11]
  GI50: 3.03 µM (inactive)
[12]
  GI50: 20 µM (inactive)
[13]
  GI50: 17.5 µM (inactive)
[14]
  GI50: 3.63 µM (inactive)
[15]
  GI50: 16 µM (inactive)
[16]
  GI50: 17.4 µM (inactive)
[17]
  GI50: 17.1 µM (inactive)
[18]
  GI50: 3.88 µM (inactive)
[19]
  GI50: 12.9 µM (inactive)
[20]
  GI50: 5.16 µM (inactive)
[21]
  GI50: 2.01 µM (inactive)
[22]
  GI50: > 41.6 µM (inactive)
[23]
  GI50: 18.5 µM (inactive)
[24]
  GI50: 8.97 µM (inactive)
[25]
  GI50: 18.5 µM (inactive)
[26]
  GI50: 5.05 µM
[27]
  GI50: 20.9 µM (inactive)
[28]
  GI50: 18.2 µM (inactive)
[29]
  GI50: 7.73 µM (inactive)
[30]
  GI50: 0.472 µM (active)
[31]
  GI50: 20.6 µM (inactive)
[32]
  GI50: > 87.5 µM (inactive)
[33]
  GI50: 6.28 µM (inactive)
[34]
  GI50: 19.9 µM (inactive)
[35]
  GI50: 20.7 µM (inactive)
[36]
  GI50: 42.6 µM (inactive)
[37]
  GI50: 24.1 µM (inactive)
[38]
  GI50: 3.51 µM (inactive)
[39]
  GI50: 17.6 µM (inactive)
[40]
  GI50: > 42.3 µM (inactive)
[41]
  GI50: 13.8 µM (inactive)
[42]
  GI50: 2.69 µM (inactive)
[43]
  GI50: 17.5 µM (inactive)
[44]
  GI50: 39 µM (inactive)
[45]
  GI50: > 100 µM (inactive)
[46]
  GI50: 16.7 µM (inactive)
[47]
  GI50: 14.6 µM (inactive)
[48]
  GI50: 3.48 µM (inactive)
[49]
  GI50: 21 µM (inactive)
[50]
  GI50: 25.7 µM (inactive)
[51]
  GI50: 18.7 µM (inactive)
[52]
  GI50: 10.4 µM (inactive)
[53]
  GI50: 7.05 µM (inactive)
[54]
  GI50: 2.44 µM (inactive)
[55]
  GI50: 10 µM (inactive)
[56]
  GI50: 10.9 µM (inactive)

## O=C(CC1(O)C(=O)Nc2c(Cl)ccc(Cl)c21)c1ccc(Cl)cc1Cl (configuration not stated)
[57]
  GI50: 16.7 µM (inactive)
[1]
  GI50: 11.6 µM (inactive)
[2]
  GI50: 27.6 µM (inactive)
[3]
  GI50: 19.8 µM (inactive)
[4]
  GI50: 19.2 µM (inactive)
[6]
  GI50: 21.6 µM (inactive)
[58]
  GI50: 16.4 µM (inactive)
[8]
  GI50: 15.3 µM (inactive)
[9]
  GI50: 15.7 µM (inactive)
[10]
  GI50: 50.1 µM (inactive)
[11]
  GI50: 14.6 µM (inactive)
[12]
  GI50: 16.6 µM (inactive)
[13]
  GI50: 21 µM (inactive)
[15]
  GI50: 25 µM (inactive)
[16]
  GI50: 16.2 µM (inactive)
[18]
  GI50: 28 µM (inactive)
[19]
  GI50: 19.3 µM (inactive)
[20]
  GI50: 20.3 µM (inactive)
[21]
  GI50: 14.2 µM (inactive)
[22]
  GI50: 32.2 µM (inactive)
[23]
  GI50: 35.4 µM (inactive)
[24]
  GI50: 19.1 µM (inactive)
[25]
  GI50: 20.7 µM (inactive)
[26]
  GI50: 30.6 µM
[27]
  GI50: 15.5 µM (inactive)
[28]
  GI50: 16.6 µM (inactive)
[29]
  GI50: 35.1 µM (inactive)
[30]
  GI50: 19.5 µM (inactive)
[31]
  GI50: 16.1 µM (inactive)
[32]
  GI50: 24 µM (inactive)
[33]
  GI50: 20.4 µM (inactive)
[34]
  GI50: 14.3 µM (inactive)
[35]
  GI50: 21.3 µM (inactive)
[36]
  GI50: 23.2 µM (inactive)
[37]
  GI50: 7.16 µM (inactive)
[39]
  GI50: 10.4 µM (inactive)
[40]
  GI50: 26.3 µM (inactive)
[41]
  GI50: 23.5 µM (inactive)
[43]
  GI50: 21.7 µM (inactive)
[44]
  GI50: 20.5 µM (inactive)
[45]
  GI50: 21.9 µM (inactive)
[46]
  GI50: 19.9 µM (inactive)
[47]
  GI50: 10 µM (inactive)
[49]
  GI50: 41.6 µM (inactive)
[50]
  GI50: 18.3 µM (inactive)
[51]
  GI50: 16.6 µM (inactive)
[52]
  GI50: 20.7 µM (inactive)
[53]
  GI50: 17.6 µM (inactive)
[54]
  GI50: 14.1 µM (inactive)
[55]
  GI50: 16.5 µM (inactive)
[56]
  GI50: 13.2 µM (inactive)
